Where no end group is shown, it is not given here.

The target of the experiment is T1, Smc3 head domain (Saccharomyces cerevisiae, UniProt P47037).
T1 construct: C′ terminal (amino acids 1001-1230); linker […]; made in house; host or cells: E. coli BL21
T1 sequence (P47037 with tags, fused parts or gaps): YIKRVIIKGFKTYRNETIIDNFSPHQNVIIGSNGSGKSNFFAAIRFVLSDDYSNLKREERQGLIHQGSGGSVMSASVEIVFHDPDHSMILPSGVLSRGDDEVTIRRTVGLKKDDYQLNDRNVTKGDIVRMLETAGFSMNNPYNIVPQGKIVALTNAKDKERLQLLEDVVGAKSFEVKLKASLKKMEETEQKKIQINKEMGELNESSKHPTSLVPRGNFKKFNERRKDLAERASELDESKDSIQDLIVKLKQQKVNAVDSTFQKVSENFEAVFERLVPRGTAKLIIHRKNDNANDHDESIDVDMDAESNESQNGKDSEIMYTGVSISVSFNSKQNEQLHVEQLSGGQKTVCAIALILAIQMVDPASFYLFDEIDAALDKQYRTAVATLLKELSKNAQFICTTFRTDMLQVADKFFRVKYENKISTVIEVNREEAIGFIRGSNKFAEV
Put plainly: Field-effect biosensing (FEB Agile R100) binding of peptide to Smc3 head domain. The note with it: 500 nM peptide immobilized on graphene chip, Hill fit or kon/koff. How it is done:
Accordingly, we explored the ability of CIP3 to bind Smc3 in-vitro. We synthesized CIP3-TAT and purified it (Figures S2A and S2B. Purification of CIP3-TAT and Smc3 head domain, related to Figure 3), and the kinetic binding of the peptide to a purified Smc3 head domain (Figures S2C and S2D. Purification of CIP3-TAT and Smc3 head domain, related to Figure 3) was explored by FEB Agile R100 (Figures 3C and 3D). The binding kinetics is determined by measuring the current of the chip that is changed when the analyzed molecules form a complex. The peptide was immobilized on the sensor chip, and the analyte, purified Smc3 head domain, was applied in solution to the chip. The changes in the current were monitored as increasing concentrations of analyte were applied to the chip. […]
The binding kinetics of cohesin-inhibiting peptide 3 (CIP3) to Smc3 were measured by field-effect biosensing (FEB) Agile R100 label-free binding assay (Cardea), following their standard protocol, and as we have done previously,.[65]^,[66]^,[67] […] Next, PBS was aspirated, and the changes in the baseline current were monitored in real-time, using 20 μM, 50 μM, 100 μM, 200 μM, 500 μΜ, 1000 μM, 1500 μM, 2000 μM, and 4000 μM of purified Smc3 head domain. Kd values were calculated using DataLINE 2.0 software by applying either a Hill equation fit or using kon and koff values at a single concentration. […]

As for KRFKDMEYLSGGEKTGGYGRKKRRQRRR [CIP3-TAT], the Kd by setting is: (with ATP (10 mM), Smc3 incubated with ATP before measuring, Smc3 head domain 20-4000 μM (0.02–4 mM)) 544.2 ± 0.06 nM; (without ATP, Smc3 head domain 20-4000 μM (0.02–4 mM) in PBS) 53.86 ± 0.03 nM.

The term Kd denotes the concentration at which binding is half-saturated.

The values above are taken from PMC10470313, “Developing a peptide to disrupt cohesin head domain interactions” (iScience, 2023).
